These results are taken from publication PMC4377985, “Cytotoxic and Antibacterial Angucycline- and Prodigiosin- Analogues from the Deep-Sea Derived Streptomyces sp. SCSIO 11594” (Marine Drugs, 2015).

≈ marks a conversion by molar mass, not a printed value. Like-named read-outs stand apart in the source and are kept apart here.

The subject of data set [1] is human nasopharyngeal carcinoma cell line CNE2. Put plainly: in vitro cytotoxicity, MTT. The data set is classed as cell-based. The procedure:
(§1) The anticancer activity of the related natural products has been described in a number of literatures, and the structure activity relationships of related synthetic natural products have been reported.
(§2) IC50 values were calculated using GraphPad Prism 5 software. All data were obtained in triplicate and are presented as means ± SD.

Data set [2] relates to human breast adenocarcinoma cell line MCF-7. Nature of the data set: in vitro cytotoxicity, MTT. It is filed as cell-based. The procedure: as §1, §2
Data set [3] is described as follows: in vitro cytotoxicity, MTT. It is filed as cell-based. Particulars: human, normal hepatic cell line HL7702, MTT, n = 3, mean ± SD. How it is done: as §1, §2
The test system of data set [4] is human hepatocarcinoma cancer cell line HepG2. Nature of the data set: in vitro cytotoxicity, MTT. The data set is classed as cell-based. The procedure:
as §1, §2

Data set [5] concerns human lung cancer cell line A549. Put plainly: in vitro cytotoxicity, MTT. The data set is classed as cell-based. The procedure: as §1, §2
Data set [6] concerns MRSE shhs-E1. Nature of the data set: antibacterial activity, dilution susceptibility test. It is filed as cell-based, methicillin-resistant Staphylococcus epidermidis. The conditions noted are these: Staphylococcus epidermidis. How it is done:
(§3) The antibacterial activities of compounds 1–5 were evaluated using MRSE shhs-E1, methicillin-resistant Staphylococcus aureus (MRSA) shhs-A1, Staphylococcus aureus ATCC 29213, Enterococcus faecalis ATCC29212, Escherichia coli ATCC 25922, Micrococcus luteus, and multidrug resistant Pseudomonas aeruginosa.
(§4) The antibacterial activities of compounds 1–5 were assessed using seven strains of pathogenic bacteria including MRSE shhs-E1, MRSA shhs-A1, Staphylococcus aureus ATCC 29213, Enterococcus faecalis ATCC29212, Escherichia coli ATCC 25922, Micrococcus luteus, and multidrug resistant Pseudomonas aeruginosa. Dilution antimicrobial susceptibility tests for aerobic bacteria were carried out as previously reported.

The test system of data set [7] is Enterococcus faecalis ATCC29212. The data set is described as above. The data set is classed as cell-based. How it is done:
as §3, §4

The subject of data set [8] is multidrug resistant Pseudomonas aeruginosa. The data set is described as above. The data set is classed as cell-based. The procedure:
as §3, §4

Data set [9] deals with Escherichia coli ATCC 25922. The data set is described as above. It is filed as cell-based. The conditions noted are these: ATCC25922. The procedure: as §3, §4
For data set [10], the system named is Staphylococcus aureus ATCC 29213. The description is as above. The data set is classed as cell-based. Particulars: ATCC29213. The procedure:
as §3, §4

Data set [11] relates to Micrococcus luteus. Described as above. It is filed as cell-based. The procedure: as §3, §4
For data set [12], the system named is MRSA shhs-A1. The data set is described as above. It is filed as cell-based, methicillin-resistant Staphylococcus aureus. Particulars: Staphylococcus aureus. The procedure:
as §3, §4

The subject of data set [13] is four human cancer cell lines A549, CNE2, HepG2, MCF-7. Put plainly: in vitro cytotoxicity, MTT, panel of four cancer cell lines. Particulars: for estimated therapeutic ratio (TR): comparison of tumor cell-derived IC50 values with HL7702 IC50; for fold more cytotoxic/potent than the positive control cisplatin: relative to cisplatin, cancer cell lines. The data set is classed as cell-based. How it is done: Compounds 1–5 were tested for potential in vitro cytotoxicity against human lung cancer cell line A549, human nasopharyngeal carcinoma cell line CNE2, human breast adenocarcinoma cell line MCF-7, human hepatocarcinoma cancer cell line HepG2, and the normal hepatic cell line HL7702. […] The anticancer activity of the related natural products has been described in a number of literatures, and the structure activity relationships of related synthetic natural products have been reported.
Compounds 1–5 were evaluated for cytotoxic activity using four human cancer cell lines, A549, CNE2, HepG2, MCF-7, one normal hepatic cell line HL7702 and previously reported MTT methodologies. IC50 values were calculated using GraphPad Prism 5 software. All data were obtained in triplicate and are presented as means ± SD. Cisplatin was used as a positive control.

Where [14] appears, read: CNE-2, CNE2, MTT, n = 3, mean ± SD, read-out: in vitro cytotoxicity IC50, CNE2.
Where [15] appears, read: MCF7, MCF-7, MTT, n = 3, mean ± SD, read-out: in vitro cytotoxicity IC50, MCF-7.
The mark [16] stands for this setting: HepG2, MTT, n = 3, mean ± SD, read-out: in vitro cytotoxicity IC50, HepG2.
Where [17] appears, read: A549, MTT, n = 3, mean ± SD, read-out: in vitro cytotoxicity IC50, A549.

A word on the IC50: it is the concentration at which inhibition is half-maximal. As a reminder, the MIC is the lowest concentration found to suppress growth. As to `CCC1CCCCCCCCC2=N/C(=C\c3[nH]c(-c4ccc[nH]4)cc3OC)C1=C2` (stereo not shown) [Compound 5, metacycloprodigiosin], the half-maximal inhibitory concentration (IC50) in data set [1] (CNE-2, read-out: in vitro cytotoxicity IC50, CNE2) is greater than 50 µM; in data set [2] (MCF7, read-out: in vitro cytotoxicity IC50, MCF-7), greater than 50 µM; in [3], greater than 50 µM; in data set [4] (HepG2, read-out: in vitro cytotoxicity IC50, HepG2), greater than 50 µM; in data set [5] (A549, read-out: in vitro cytotoxicity IC50, A549), greater than 50 µM. For the same compound, the MIC in [6] (MRSE), in data set [7], in [8], in [9], in data set [10] and in data set [11] was greater than 64 mg/L each time. This compound had an MIC in data set [12] greater than 64 mg/L.

With `Cc1cc(O)c2c3c(ccc2c1)C(=O)c1c(ccc([C@H]2C[C@@H](O)[C@H](O)[C@@H](C)O2)c1O)C3=O` [Compound 3, dehydroxyaquayamycin], the IC50 stood at 22.27 ± 0.07 µM in data set [1] (setting [14]); 23.65 ± 0.09 µM in data set [2] (setting [15]); 49.34 ± 0.17 µM in data set [3] (HL7702 normal hepatic cells); 18.81 ± 0.12 µM in [4] (setting [16]); 16.4 ± 0.19 µM in [5] (setting [17]). Also, the MIC in [6] (MRSE shhs-E1, read-out: MIC) is 16 mg/L (≈ 36.8 µM). Further, the “estimated therapeutic ratio (TR)” value in data set [13] is given as 2–3.

For `Cc1cc(O)c2c3c(ccc2c1)C(=O)c1c(ccc([C@H]2C[C@@H](O)[C@H](O[C@H]4CC[C@@H](O)[C@H](C)O4)[C@@H](C)O2)c1O)C3=O` [Compound 1, marangucycline A], the 50% inhibitory concentration (IC50) in data set [1] (setting [14]), in [2] (setting [15]), in data set [3] (HL7702 normal hepatic cells), in [4] (setting [16]) and in [5] (setting [17]) was greater than 50 µM in each case.

In the case of `CCCCCCCCCCCC1=N/C(=C\c2[nH]c(-c3ccc[nH]3)cc2OC)C=C1` [Compound 4, undecylprodigiosin], the half-inhibitory concentration (IC50) in [1] (setting [14]) was found to be 0.28 ± 0.02 µM; in data set [2] (setting [15]), 1.11 ± 0.07 µM; in [3] (HL7702 normal hepatic cells), 12.47 ± 0.09 µM; in data set [4] (setting [16]) it was 4.67 ± 0.09 µM; in data set [5] (setting [17]) it was 0.85 ± 0.01 µM. Further, the MIC in data set [6] (MRSE), in [7], in data set [8], in data set [9], in [10] and in data set [11] was greater than 64 mg/L each time. Further, in [12], the MIC is greater than 64 mg/L. Also, the “estimated therapeutic ratio (TR)” value in [13] is given as 3–45. The “fold more cytotoxic/potent than the positive control cisplatin” value in [13] is 1–10 fold.

Consider `Cc1cc(O)c2c3c(ccc2c1)C(=O)c1c(ccc(C2CC4OC5CC(=O)C(C)OC5OC4C(C)O2)c1O)C3=O` (stereo not shown) [Compound 2, marangucycline B], for which the IC50 is 0.56 ± 0.02 µM in data set [1] (setting [14]); 0.24 ± 0.003 µM in data set [2] (setting [15]); 3.67 ± 0.07 µM in [3] (HL7702 normal hepatic cells); 0.43 ± 0.05 µM in data set [4] (setting [16]); 0.45 ± 0.03 µM in data set [5] (setting [17]); 0.24 to 0.56 µM in [13] (Homo sapiens, four cancer cell lines, read-out: IC50 values against cancer cell lines (range over the panel)). In addition, the “estimated therapeutic ratio (TR)” value in data set [13] is 7–15. Also, in data set [13], the “fold more cytotoxic/potent than the positive control cisplatin” value is reported as 10–20 fold.
